{"source": "patent US11337909B2", "about": "“Methods for modulating pigmentation by angiotensin-converting enzyme 2 modulation” (Max-Delbrück-Centrum für Molekulare Medizin in der …, priority 2017, dated 2022)", "key": {"ACE2 [1]": {"system": "ACE2", "assay": "ACE2 expression in B16F10 cells by real-time RT-PCR", "type": "cell-based, mouse", "conditions": "10 ng/μl DIZE, 48 hours, FIG. 8", "protocol": "B16F10 mouse melanoma cells were incubated with 10 ng/μl diminazene aceturate (DIZE, ACE2 activator) for 48 hours and the expression of ACE2 was quantified by real-time RT-PCR; *p<0.05."}, "tyrosinase (TYR)": {"system": "tyrosinase (TYR)", "assay": "Tyrosinase (TYR) expression in B16F10 cells by real-time RT-PCR", "type": "cell-based, mouse", "conditions": "1 nM aMSH + 10 ng/μl DIZE, 48 hours, FIG. 7; dihydrochloride", "protocol": "B16F10 mouse melanoma cells were incubated with 1 nM aMSH, 10 ng/μl diminazene aceturate (DIZE, ACE2 activator) or a combination of both for 48 hours and the expression of the melanin-synthesizing enzyme tyrosinase (TYR) was quantified by real-time RT-PCR; **p<0.01; *p<0.05.\nB16F10 mouse melanoma cells were incubated with 1 nM aMSH, 10 ng/μl diminazene aceturate (DIZE, ACE2 activator) or a combination of both for 48 hours and the expression of the melanin-synthesizing enzyme tyrosinase (TYR) was quantified by real-time RT-PCR."}, "ACE2 [2]": {"target": "T1, ACE2 (Homo sapiens, UniProt Q9BYF1)", "conditions": "in vitro and in vivo; Shenoy et al; cited from earlier work"}, "[3]": {"system": "human abdominal skin biopsies", "assay": "Fontana-Masson melanin staining in human abdominal skin biopsies", "type": "cell-based", "conditions": "FIG. 5", "protocol": "FIG. 5: ACE2 limits the efficiency of αMSH1-13 in human skin; Fontana-Masson staining in human abdominal skin biopsies. Melanin was stained black by Fontana-Masson staining in human abdominal skin biopsies after treatment with vehicle, 10 nM αMSH1-13, or 10 nM αMSH1-13+100 nM of the ACE2-Inhibitor MLN476.\n(§1) Biopsies were treated with vehicle, 10 nM αMSH1-13, 10 nM αMSH1-13+100 nM of the ACE2-Inhibitor MLN4760, or 100 nM MLN4760 alone."}, "ACE2 [4]": {"target": "T1, ACE2", "conditions": "ACE2 inhibitor; cited from earlier work"}, "Tyrosinase": {"system": "Tyrosinase", "assay": "Tyrosinase mRNA expression in human abdominal skin biopsies", "type": "cell-based", "conditions": "for tyrosinase mRNA expression: FIG. 4", "protocol": "FIG. 4: ACE2 limits the efficiency of αMSH1-13 in human skin; Tyrosinase expression. Tyrosinase (melanin synthesizing enzyme) mRNA expression was measured in human abdominal skin biopsies after treatment with vehicle, 10 nM αMSH1-13, 10 nM αMSH1-13+100 nM of the ACE2-Inhibitor MLN4760, or 100 nM MLN4760 alone.\nas §1"}, "[5]": {"system": "B16F10 mouse melanoma cells", "assay": "Cell culture assay for melanogenesis in B16F10 melanoma cells", "type": "cell-based", "description": "FIG. 2: Melanogenesis in B16F10 melanoma cells stimulated with α-MSH1-13 and α-MSH1-12. *** p<0.001 compared to control without α-MSH, +++, +p<0.001, p<0.05 α-MSH1-12 compared to the same concentration of α-MSH1-13.\nIn wild-type mice, the inventors further confirmed previous studies in humans (Ham-ming et al., 2004, Grzegrzolka et al., 2013) showing that ACE2 is expressed in the skin."}, "ACE2 [6]": {"target": "T1, ACE2", "conditions": "Hernandez Prada et al; cited from earlier work"}, "ACE2 [7]": {"target": "T1, ACE2", "design": "purchased Enzo life sciences, Plymouth meeting, PA", "conditions": "Kulemina and Ostrov; cited from earlier work"}, "ACE2 [8]": {"target": "T1, ACE2", "conditions": "Mores et al; read-out: Ki value toward ACE2; cited from earlier work"}}, "note": "“Also recorded” adds a separate entry of the source. Structures can show the parent of a compound that is named as a salt.", "data": [{"molecule": "N=C(N)c1ccc(/N=N/Nc2ccc(C(=N)N)cc2)cc1", "note": "[DIZE, 4-[2-(4-carbamimidoylphenyl)iminohydrazinyl]benzenecarboximidamide dihydrochloride]", "values": [{"measurement": "ACE2 expression", "setting": "ACE2 [1]", "result": "stimulates ACE2 expression"}, {"measurement": "tyrosinase (TYR) expression, effect on αMSH stimulation", "setting": "tyrosinase (TYR)", "result": "inhibits the stimulating effect of aMSH; also recorded: inhibits the stimulating effect of αMSH"}, {"measurement": "enhancement of the enzymatic activity of ACE2", "setting": "ACE2 [2]", "result": "enhance the enzymatic activity of ACE2"}]}, {"molecule": "CC(C)C[C@H](N[C@@H](Cc1cncn1Cc1cc(Cl)cc(Cl)c1)C(=O)O)C(=O)O", "note": "[MLN-4760, (2S)-2-[[(1S)-1-carboxy-2-[3-[(3,5-dichlorophenyl)methyl]imidazol-4-yl]ethyl]amino]-4-methylpentanoic acid]", "values": [{"measurement": "melanin levels (Fontana-Masson staining), effect on αMSH1-13 increase", "setting": "[3]; 10 nM αMSH1-13 + 100 nM ACE2 inhibitor", "result": "This effect is further increased by ACE2 inhibition"}, {"measurement": "IC50", "setting": "ACE2 [4]", "result": 0.5, "unit": "nM"}, {"measurement": "tyrosinase mRNA expression, effect on αMSH1-13 stimulation", "setting": "Tyrosinase; 10 nM αMSH1-13 + 100 nM MLN4760, FIG. 4", "result": "This effect is increased by ACE2 inhibition"}, {"measurement": "tyrosinase mRNA expression", "setting": "Tyrosinase; 100 nM MLN4760 alone", "result": "ACE2 inhibition alone already stimulates tyrosinase expression"}, {"measurement": "effect on the ACE2-mediated inhibition of α-MSH1-13 melanogenic effect", "setting": "[5]; B16F10 cells, α-MSH1-13 + human recombinant ACE2, FIG. 3", "result": "inhibits the effect of ACE2"}]}, {"molecule": "Cc1ccc(S(=O)(=O)Oc2ccc3oc4c(CO)ccc(NCCN(C)C)c4c(=O)c3c2)cc1", "note": "[XNT, [8-(2-dimethylaminoethylamino)-5-(hydroxymethyl)-9-oxoxanthen-2-yl]4-methyl-benzenesulfonate]", "values": [{"measurement": "enhancement of ACE2 activity", "setting": "ACE2 [6]", "result": "enhance ACE2 activity in a dose-dependent manner"}, {"measurement": "increase of the velocity of the enzyme (rate of catalysis)", "setting": "ACE2 [7]", "result": "approximately twofold"}]}, {"molecule": "CC(=O)NC(Cc1c[nH]cn1)C(=O)N1CCCC1P(=O)(O)CC(Cc1cc(-c2ccccc2)no1)C(=O)O", "note": "(stereo not shown) [compound 41]", "values": [{"measurement": "Ki", "setting": "ACE2 [8]", "result": 0.4, "unit": "nM"}]}, {"molecule": "O=C1OC2(c3ccc(O)cc3Oc3cc(O)ccc32)c2cccc3cccc1c23", "note": "[resorcinolnaphthalein]", "values": [{"measurement": "enhancement of ACE2 activity", "setting": "ACE2 [6]", "result": "enhance ACE2 activity in a dose-dependent manner"}]}, {"molecule": "human recombinant ACE2: human recombinant angiotensin-converting enzyme 2", "values": [{"measurement": "effect of added ACE2 on melanogenic activity of α-MSH1-13", "setting": "[5]; B16F10 cells, with α-MSH1-13, FIG. 3 upper panel", "result": "Inhibition of the melanogenic effect of α-MSH1-13; also recorded: reduces its melanogenic activity"}]}, {"molecule": "α-MSH1-12: expected ACE2 digestion product of α-MSH1-13 (SYSMEHFRWGKP)", "values": [{"measurement": "melanogenic activity relative to α-MSH1-13", "setting": "[5]; B16F10 mouse melanoma cells, FIG. 2", "result": "at least 100 times less active"}]}, {"molecule": "α-MSH1-13: α-melanocyte stimulating hormone, 13-amino-acid peptide hormone", "values": [{"measurement": "melanin levels (Fontana-Masson staining)", "setting": "[3]; 10 nM αMSH1-13 vs vehicle", "result": "increases melanin levels"}, {"measurement": "tyrosinase mRNA expression", "setting": "Tyrosinase; 10 nM αMSH1-13 vs vehicle", "result": "stimulates tyrosinase expression"}]}]}
